From US20250051263A1, “NOVEL IONIZABLE LIPIDS AND LIPID NANOPARTICLES AND METHODS OF USING THE SAME” (Sail Biomedicines, Inc., priority 2021, published 2025)

Legend:
[1] = mRNA encapsulation efficiency, Quant-iT RiboGreen RNA Assay; assay type: physicochemical; settings: Example 5 LNP lipid:DOPE:Plant Cholesterol:DMPE-PEG2k 35:16:46.5:2.5, FLUC/EPO 1:1 mRNA, N:P 6:1
Description: All other compositions (i.e., compositions of MC3 (a commercially available ionizable lipid having a chemical name of (6Z,9Z,28Z,31Z)-heptatriacont-6,9,28,31-tetraene-19-yl 4-(dimethylamino)butanoate, and compositions of novel ionizable lipids 7669, 7671, 7668, 767, 7650) are composed of ionizable lipid:structural lipid:sterol:PEG-lipid (SDA lipid #:DSPC:cholesterol:14:0 PEG2000 PE) at a molar ratio of […], respectively. Lipids are solubilized in ethanol. Compositions are then handled as above, except the formulations are maintained at ionizable lipid to mRNA N:P ratio of 6:1. The lipid mix and mRNA solution are mixed at a 1:3 ratio by volume, respectively, on a NanoAssemblr Ignite (Precision Nanosystems) at a total flow rate of 9 mL/min. Resulting compositions are then loaded into Slide-A-Lyzer G2 dialysis cassettes (10 k MWCO) and dialyzed in 200 times sample volume of 1×PBS for 4 hrs at room temp with gentle stirring. The PBS is refreshed, and the compositions are further dialyzed for at least 14 hrs at 4° C. with gentle stirring. The dialyzed compositions are then collected and concentrated by centrifugation at 2000×g using Amicon Ultra centrifugation filters (100 k MWCO). Concentrated particles are characterized for size, polydispersity, and particle concentration using Zetasizer Ultra (Malvern Panalytical) and for mRNA encapsulation efficiency using Quant-iT RiboGreen RNA Assay Kit (ThermoFisher Scientific).
The lipid mix and mRNA solution were mixed at a 1:3 ratio by volume, respectively, on the NanoAssemblr Ignite (Precision Nanosystems) at a total flow rate of 9 mL/min. Resulting formulations were then loaded into Slide-A-Lyzer G2 dialysis cassettes (10 k MWCO) and dialyzed in 200 times sample volume of 1×PBS for 2 hrs at room temperature. The PBS was refreshed, and the formulations were further dialyzed for at least 14 hrs at 4° C. with gentle stirring. The dialyzed formulations were then collected and concentrated by centrifugation at 3000×g using Amicon Ultra centrifugation filters (100 k MWCO). The concentrated formulations were characterized for size, polydispersity, and particle concentration using Zetasizer Ultra (Malvern Panalytical) and for mRNA encapsulation efficiency using Quant-iT RiboGreen RNA Assay Kit (ThermoFisher Scientific).
For each LNP composition, the lipid mix and mRNA solution were mixed at a 1:3 ratio by volume, respectively, on a NanoAssemblr Ignite (Precision Nanosystems) at a total flow rate of 9 mL/min. The resulting compositions were then loaded into Slide-A-Lyzer G2 dialysis cassettes (10 k MWCO) and dialyzed in 200 times sample volume of 1×PBS for 2 hours at room temperature with gentle stirring. The PBS was refreshed, and the compositions were further dialyzed for at least 14 hours at 4° C. with gentle stirring. The dialyzed compositions were then collected and concentrated by centrifugation at 3000×g using Amicon Ultra centrifugation filters (100 k MWCO). The concentrated particles were characterized for size, polydispersity, and particle concentration using Zetasizer Ultra (Malvern Panalytical) and for mRNA encapsulation efficiency using Quant-iT RiboGreen RNA Assay Kit (ThermoFisher Scientific).

Balb/c mice = assay: In-vivo bioluminescent imaging after IV injection of Fluc mRNA LNP; settings: Example 5 LNP (DOPE 35:16:46.5:2.5), IV, 5 μg FLUC + 5 μg EPO; for Bioluminescence (IV) Liver / Bioluminescence (IV) Lung / Bioluminescence (IV) Spleen / Bioluminescence (IV) Whole Body: 4-6 hours post-dose; for Spleen: Liver Ratio: ratio of bioluminescence
Experimental: 8-9 week old female Balb/c mice are utilized for bioluminescence-based ionizable lipid screening efforts. Mice are obtained from Jackson Laboratories (JAX Stock: 000651) and allowed to acclimate for one week prior to manipulations. Animals are placed under a heat lamp for a few minutes before introducing them to a restraining chamber. The tail is wiped with alcohol pads (Fisher Scientific) and 100 μL of a lipid nanoparticle composition descrbed above containing 10 ug total mRNA (5 ug Fluc+5 ug EPO) is injected intravenously using a 29 G insulin syringe (Covidien). Any resulting bleeding is stemmed using a sterile gauze pad (Fisher Scientific) and animals are placed back into their home cage. 4-6 hours post-dose, animals are injected with 200 μL of 15 mg/mL D-Luciferin (GoldBio) and placed in an isoflurane induction chamber set to deliver 2.5% isoflurane delivered at an oxygen flow rate of 1-2 liters per min. After 5 minutes of isoflurane exposure, mice are placed in set nose cones inside the IVIS Lumina LT imager (PerkinElmer). LivingImage software is utilized for imaging. Whole body bio-luminescence is captured at auto-exposure after which animals are removed from the IVIS and placed into a CO2 chamber for euthanasia. Cardiac puncture is performed on each animal after placing it in dorsal recumbency, and blood collection is performed using a 25 G insulin syringe (BD). Blood is collected in Lithium-Heparin coated tubes (Fisher Scientific) and immediately placed on ice. Once all blood samples are collected, tubes are spun at 2000 G for 10 minutes using a tabletop centrifuge and plasma is aliquoted into individual Eppendorf tubes (Fisher Scientific) and stored at −80 C for subsequent EPO quantification. EPO levels in plasma are determined using EPO MSD kit (Meso Scale Diagnostics).
8-9 week old female Balb/c mice were utilized for bioluminescence-based ionizable lipid screening efforts. Mice were obtained from Jackson Laboratories (JAX Stock: 000651) and allowed to acclimate for one week prior to manipulations. Animals were placed under a heat lamp for a few minutes before introducing them to a restraining chamber. The tail was wiped with alcohol pads (Fisher Scientific) and, for each LNP composition descrbed above, 100 μL of a lipid nanoparticle composition descrbed above containing 10 μg total mRNA (5 μg Fluc+5 μg EPO, 5 μg Fluc+5 μg Cre, or 5 μg EGFP) was injected intravenously using a 29 G insulin syringe (Covidien).
4-6 hours post-dose, animals were injected with 200 μL of 15 mg/mL D-Luciferin (GoldBio), and placed in set nose cones inside the IVIS Lumina LT imager (PerkinElmer). LivingImage software was utilized for imaging. Whole body bio-luminescence was captured at auto-exposure after which animals are removed from the IVIS and placed into a CO2 chamber for euthanasia. Cardiac puncture was performed on each animal after placing it in dorsal recumbency, and blood collection was performed using a 25 G insulin syringe (BD). Once all blood samples were collected, tubes are spun at 2000 G for 10 minutes using a tabletop centrifuge and plasma was aliquoted into individual Eppendorf tubes (Fisher Scientific) and stored at −80° C. for subsequent EPO quantification. EPO levels in plasma were determined using EPO MSD kit (Meso Scale Diagnostics).

SMILES	% EE [1]	Bioluminescence (IV) Liver (Balb/c mice)	Bioluminescence (IV) Lung (Balb/c mice)	Bioluminescence (IV) Spleen (Balb/c mice)	Bioluminescence (IV) Whole Body (Balb/c mice)	Spleen: Liver Ratio (Balb/c mice)
CCCCCCCCCCCOC(=O)CCCCCN(CCCCCCCC(=O)OCCCC(CCCCC)CCCCC)CCNC(=O)/C=C/C(=O)NCCN(CCCCCCCC(=O)OCCCC(CCCCC)CCCCC)CCCCCC(=O)OCCCCCCCCCCC [Compound 2382, 4-pentylnonyl 8-[2-[[(E)-4-oxo-4-[2-[[8-oxo-8-(4-pentylnonoxy)octyl]-(6-oxo-6-undecoxy-hexyl)amino]ethylamino]but-2-enoyl]amino]ethyl-(6-oxo-6-undecoxy-hexyl)amino]octanoate]	87.3%	1.9E+07	2.1E+04	2.1E+06	1.5E+08	0.104
CCCCCC(CCCCC)CCCOC(=O)CCCCCCCN(CCCCCCCC(=O)OCCCC(CCCCC)CCCCC)CCNC(=O)CCC(=O)NCCN(CCCCCCCC(=O)OCCCC(CCCCC)CCCCC)CCCCCCCC(=O)OCCCC(CCCCC)CCCCC [Compound 2332, bis(4-pentyl-nonyl)13,16-dioxo-9,20-bis(8-oxo-8-((4-pentylnon-yl)oxy)octyl)-9,12,17,20-tetraazaocta-cosanedioate]	98.0%	2.8E+07		3.5E+05	9.8E+07	0.045
CCCCCCCCCC(C)COC(=O)CCCCCN(CCCCCCCC(=O)OC(CCCCCCCC)CCCCCCCC)CCNC(=O)CCC(=O)NCCN(CCCCCCCC(=O)OC(CCCCCCCC)CCCCCCCC)CCCCCC(=O)OCC(C)CCCCCCCCC (centres unmarked) [Compound 2355, 1-octylnonyl 8-[[6-(2-methylundecoxy)-6-oxo-hexyl]-[2-[[4-[2-[[6-(2-methylundecoxy)-6-oxo-hexyl]-[8-(1-octylnonoxy)-8-oxo-octyl]amino]ethylamino]-4-oxo-butanoyl]amino]ethyl]amino]octanoate]	94.9%	1.8E+07	5.9E+03	4.6E+05	1.4E+08	0.026
CCCCCCCCCCCNC(=O)CCCCCN(CCCCCCCC(=O)NC(CCCCCCCC)CCCCCCCC)CCNC(=O)CCC(=O)NCCN(CCCCCCCC(=O)NC(CCCCCCCC)CCCCCCCC)CCCCCC(=O)NCCCCCCCCCCC [Compound 2282, N,N′-bis[2-[[8-(1-octylnonylamino)-8-oxo-octyl]-[6-oxo-6-(undecylamino)hexyl]amino]ethyl]butanediamide]	94.7%	5.7E+07	3.8E+04	5.4E+06	7.7E+08	0.092
CCCCCCCCC(CCCCCCCC)OC(=O)CCCCCCCN(CCCCCCCC(=O)OC(CCCCCCCC)CCCCCCCC)CCNC(=O)CCC(=O)NCCN(CCCCCCCC(=O)OC(CCCCCCCC)CCCCCCCC)CCCCCCCC(=O)OC(CCCCCCCC)CCCCCCCC [Compound 2275, 1-octylnonyl 8-[2-[[4-[2-[bis[8-(1-octylnonoxy)-8-oxo-octyl]amino]ethylamino]-4-oxo-butanoyl]amino]ethyl-[8-(1-octylnonoxy)-8-oxo-octyl]amino] octanoate]	94.7%	6.8E+07	1.6E+04	2.3E+05	4.8E+08	0.003
CCCCCCCCC(CCCCCCCC)OC(=O)CCCCCCCN(CCCCCCCC(=O)OC(CCCCCCCC)CCCCCCCC)CCNC(=O)CCCC(=O)NCCN(CCCCCCCC(=O)OC(CCCCCCCC)CCCCCCCC)CCCCCCCC(=O)OC(CCCCCCCC)CCCCCCCC [Compound 2320, 1-octylnonyl 8-[2-[[5-[2-[bis[8-(1-octylnonoxy)-8-oxo-octyl]amino]ethylamino]-5-oxo-pentanoyl]amino]ethyl-[8-(1-octylnonoxy)-8-oxo-octyl]amino]octanoate]	93.4%	8.1E+07	4.0E+03	4.4E+05	9.5E+08	0.007
CCCCCCCCCOC(=O)CCCCCCCN(CCCCCCCC(=O)OC(CCCCCCCC)CCCCCCCC)CCNC(=O)CCC(=O)NCCN(CCCCCCCC(=O)OCCCCCCCCC)CCCCCCCC(=O)OC(CCCCCCCC)CCCCCCCC [Compound 2213, nonyl 8-[2-[[4-[2-[(8-nonoxy-8-oxo-octyl)-[8-(1-octylnonoxy)-8-oxo-octyl]amino]ethylamino]-4-oxo-butanoyl]amino]ethyl-[8-(1-octylnonoxy)-8-oxo-octyl]amino]octanoate]	92.5%	2.2E+06	3.7E+03	3.5E+05	1.0E+07	0.215
CCCCCCCCCCC(CC)OC(=O)CCCCCN(CCCCCCCC(=O)OC(CCCCCCCC)CCCCCCCC)CCNC(=O)/C=C/C(=O)NCCN(CCCCCCCC(=O)OC(CCCCCCCC)CCCCCCCC)CCCCCC(=O)OC(CC)CCCCCCCCCC (centres unmarked) [Compound 2378, 1-octylnonyl 8-[[6-(1-ethylundecoxy)-6-oxo-hexyl]-[2-[[(E)-4-[2-[[6-(1-ethylundecoxy)-6-oxo-hexyl]-[8-(1-octylnonoxy)-8-oxo-octyl]amino]ethylamino]-4-oxo-but-2-enoyl]amino]ethyl]amino]octanoate]	93.0%	1.6E+07	7.6E+03	2.2E+05	1.8E+08	0.007
